Read-outs that look alike come from different tables or passages of the source.
Experiments:
[1] = tested on: SH-SY5Y human neuroblastoma cells; test: Protection against hydrogen peroxide-induced cell death (LDH); format: cell-based; settings: compound 1 h before H2O2 100 μM, 24 h; for minimal effective concentration: Homo sapiens, SH-SY5Y, read-out: Protect. H2O2 (minimum concentration for which protection was determined)
Method: The aim of this assay is to determine the neuroprotective effect of the compounds of formula (I), when human neuroblastoma cells are exposed to oxidative stress induced by hydrogen peroxide, which is highly deleterious to the cell and its accumulation causes oxidation of cellular targets such as DNA, proteins, and lipids leading to mutagenesis and cell death.
SH-SY5Y human neuroblastoma cells are seeded into 96-well culture plate at a density of 10^4 cells/well. Cells are exposed to different concentrations of the compound one hour before the treatment with H2O2 100 μM during 24 h. 5 mM N-acetylcysteine (NAC), a known anti-oxidant agent was used as a positive control, and preincubated 1 hour before the treatment with H2O2. After 24 h, the medium is removed and cells attached to the bottom of the well are lysed by adding 50 μl of Triton X-100 1% in Krebs-Hepes during 5 minutes at room temperature. For LDH release quantification, Roche cytotoxicity detection kit (Cat. No. 11 644 793 001) was used.

[2] = tested on: SH-SY5Y human neuroblastoma cells; test: Protection against 6-OHDA-induced cell death, condition A (10% foetal bovine serum); format: cell-based; settings: preincubated 2 hours, 6-OHDA 75 μM 16 hours, read-out: Protect. 6-OHDA (+ FBS) (minimum concentration with neuroprotective effect)
Description: The aim of this experiment is to determine the protective effect of the compounds of formula (1) against the toxicity caused by 6-OHDA. This toxin induces a cell death similar to which occurs in Parkinson's disease, destroying dopaminergic neurons (“MPTP and 6-hydroxydopamine-induced neurodegeneration as models for Parkinson's disease: neuroprotective strategies”; Grunblatt E, et al.; J Neurol. 2000 Apr; 247 Suppl 2:II95-102).
Two or three days before the experiment, the SH-SY5Y human neuroblastoma cells are seeded into 96-well culture plate at a density of 10^4 cells/well. Cells are exposed to the treatment with 6-OHDA and, finally, cell death is measured by LDH quantification. As positive control we used NAC.
• A) NAC and the compound of formula (I) are preincubated during 2 hours before the treatment with 6-OHDA 75 μM during 16 hours. The assay is performed in medium containing 10% Foetal bovine serum.
For each compound the minimum concentration of compound of formula (I) at which a neuroprotective effect is shown.

[3] = tested on: Aβ (1-40) secretion by CHO7W cells (stably transfected with human APP751 wt cDNA); test: Inhibition of Aβ(1-40) secretion (ELISA, cellular supernatants); format: cell-based; settings: Aβ 1-40 ELISA
Description: To quantitate Aβ secretion ELISA-based method was used. The assay consists in detection of antigen by selective monoclonal anti-Aβ-antibodies at two different epitopes forming a “Sandwich-complex”, that is detected by colorimetric measure due to the binding of a secondary antibody conjugated with peroxidase that catalyses the conversion of a substrate or chromogen, TMB, into a coloured product, directly proportional to the peptide quantity in the sample. The Aβ production has been analyzed by ELISA, using a colorimetric commercial kit: Immunoassay Kit Human β Amyloid 1-40 (Biosource).
Aβ (1-40) were quantified from cellular supernatants. An APP-transfected cell line has been employed for the experiments: CHO7W (stably transfected with human APP751 wt cDNA). The cells were grown in a culture medium consisting of DMEM supplemented with 2% Fetal bovine serum, 1% penicillin-streptomycin, 1% L-glutamine and 200 μg/ml G418. Cells are seeded in 96-well culture microplate, at 5000 cells/well and treatment with different compounds at different concentrations is performed 24 hour after seeding.
OM99-2 (H-5108, Bachem), a BACE inhibitor, was used as Aβ secretion reduction positive control in all the Aβ secretion studies. The cells were treated with this compound at 3 μM concentration, culture media were collected at 24 hours.

[4] = Screening pharmacokinetic study, plasma and brain (LC-MS/MS); format: in vivo, mice (C57BL6/J); settings: mice; for Kp / bioavailability / Tmax / half-life / AUC / Cmax: male, C57BL6/J, mouse; for Kp: brain and plasma
Method: The objective of this study is to evaluate the oral bioavailability and the plasmatic and brain pharmacokinetic parameters after oral and intravenous administration, thus determining if compounds of formula (I) are able to cross the blood brain barrier (BBB). […] Each compound was solved in appropriate excipients. In the case of oral administration, compound was administered by means of an oral gavage coupled to a syringe. In the intravenous administration animals, the test item was administered by a single injection with a syringe coupled to a 30 G needle.
Two animals were sacrificed (according to internal SOPs and following animal handling and welfare guidelines) at each selected extraction times (i.e. 30 min, 1 h, 2 h, 4 h, 6 h, 8 h and 24 hours after administration), and from each animal, both brain and blood samples were obtained. Plasma was extracted by centrifugation of the blood samples. Each sample time represents two male mice from which samples were obtained.
The method for the analysis of plasma and brain samples involved isolation of the analyte from the biological matrix by protein precipitation or solid-phase extraction followed by analysis using LC-MS/MS. Limits of quantification for these compounds were in the order of 2-10 ng/mL. The software Winnonlin professional version 5.2 was used for the calculation of pharmacokinetic parameters.
In the following tables, the abbreviations have the meaning indicated below: • AUC=Area under the curve • T1/2=Half-life • Tmax=the time after administration of a drug when the maximum plasma concentration is reached; when the rate of absorption equals the rate of elimination • Cmax=maximum plasma concentration of the drug • V. Adm. and Vol. Adm.=volume of administration

[5] = iv, brain AUC relative to plasma AUC, intravenous route, group 1-2 mg/kg, read-out: % AUC
[6] = iv, brain Cmax relative to plasma Cmax, intravenous route, group 1-2 mg/kg, read-out: % Cmax
[7] = po, 20 mg/kg, brain AUC relative to plasma AUC, 20 mg/kg oral route, read-out: % AUC
[8] = po, 20 mg/kg, brain Cmax relative to plasma Cmax, 20 mg/kg oral route, read-out: % Cmax
[9] = plasma, 20 mg/kg oral route (low dose)
[10] = plasma, 200 mg/kg oral route (high dose)
[11] = intravenous route, group 1-2 mg/kg (Compound 4, 8: 1.00; 7: 1.20; 10: 2.00 mg/Kg), brain
[12] = intravenous route, group 1-2 mg/kg (Compound 4, 8: 1.00; 7: 1.20; 10: 2.00 mg/Kg), plasma
[13] = po, 200 mg/kg, brain AUC relative to plasma AUC, 200 mg/kg oral route, read-out: % AUC
[14] = po, 200 mg/kg, brain Cmax relative to plasma Cmax, 200 mg/kg oral route, read-out: % Cmax

Kp [4, 5]	Kp [4, 6]	Kp [4, 7]	Kp [4, 8]	bioavailability [4, 9] [%]	bioavailability [4, 10] [%]	Tmax ([4]; 20 mg/kg oral route, brain) [min]	half-life ([4]; 20 mg/kg oral route, brain) [min]	AUC ([4]; 20 mg/kg oral route, plasma) [ng·h/mL]	Cmax ([4]; 20 mg/kg oral route, plasma) [ng/mL]	Tmax ([4]; 20 mg/kg oral route, plasma) [min]	half-life ([4]; 20 mg/kg oral route, plasma) [min]	Tmax [4, 11] [min]	AUC [4, 12] [ng·h/mL]	Cmax [4, 12] [ng/mL]	Tmax [4, 12] [min]	half-life [4, 12] [min]	Cmax Brain ([4]; 20 mg/kg oral route, brain) [ng/g]	Cmax Brain [4, 11] [ng/g]	Structure (SMILES)	minimal effective concentration [2] [µM]	further results
1.04	3.71	0.278	0.417	7.11	3.19	240	43.8	378	106	18	99.6	4.8	319	104	60	268	19.62	386.10	CC(C)Sc1cc(/C=N/O)nc2c1ccc1cccnc12 [Compound 7, 4-Isopropylsulfanyl-[1,10]phenanthroline-2-carbaldehyde oxime]	0.05	minimal effective concentration [1]: 0.05 µM; minimal effective concentration ([3]; read-out: Inhibition secretion beta-amyloid (minimum concentration)): 1 nM; AUC ([4]; 200 mg/kg oral route, plasma): 1700 ng·h/mL; Cmax ([4]; 200 mg/kg oral route, plasma): 1210 ng/mL; Tmax ([4]; 200 mg/kg oral route, plasma): 30 min
0.0439	0.0524	0.0418	0.0621	6.67	–	15	108	325	396	15	234	15	244	690	15	66.6	24.60	36.10	COCCOc1cc(/C=N/O)nc2c1ccc1cccnc12 [Compound 8, 4-(2-Methoxy-ethoxy)-[1,10]phenanthroline-2-carbaldehyde oxime]	0.05	Protect. H2O2 (minimum concentration for which protection was determined) [1]: 50 nM; Inhibition secretion beta-amyloid (minimum concentration) [3]: 1 mM; half-life [4, 11]: 10.8 min
1.27	1.33	2.76	0.742	1.01	19.1	15	39.6	7.24	20.8	15	18	15	36	78.7	15	13.2	15.40	104.40	CSc1cc(/C=N/O)nc2c1ccc1cccnc12 [Compound 4, 4-Methylsulfanyl-[1,10]phenanthroline-2-carbaldehyde oxime]	0.05	minimal effective concentration [1]: 0.05 µM; Inhibition secretion beta-amyloid (minimum concentration) [3]: 0.05 mM; Kp [4, 13]: 1.12; Kp [4, 14]: 1.5; Tmax ([4]; 200 mg/kg oral route, brain): 30 min; half-life ([4]; 200 mg/kg oral route, brain): 56.4 min; AUC ([4]; 200 mg/kg oral route, plasma): 1380 ng·h/mL; Cmax ([4]; 200 mg/kg oral route, plasma): 931 ng/mL; Tmax ([4]; 200 mg/kg oral route, plasma): 30 min; half-life ([4]; 200 mg/kg oral route, plasma): 55.2 min; half-life [4, 11]: 23.4 min; Cmax Brain ([4]; 200 mg/kg oral route, brain): 1394.40 ng/g
0.229	0.137	0.119	0.0876	12.5	77.6	60	–	184	149	60	240	4.8	148	136	4.8	486	13.07	18.7	CCN(CC)CCOc1cc(/C=N/O)nc2c1ccc1cccnc12 [Compound 10, 4-(2-Diethylamino-ethoxy)-[1,10]phenanthroline-2-carbaldehyde oxime]	0.05	Protect. H2O2 (minimum concentration for which protection was determined) [1]: 50 nM; Inhibition secretion beta-amyloid (minimum concentration) [3]: 1 mM; Kp [4, 13]: 8.32; Kp [4, 14]: 1.96; Tmax ([4]; 200 mg/kg oral route, brain): 120 min; AUC ([4]; 200 mg/kg oral route, plasma): 11500 ng·h/mL; Cmax ([4]; 200 mg/kg oral route, plasma): 3950 ng/mL; Tmax ([4]; 200 mg/kg oral route, plasma): 30 min; half-life ([4]; 200 mg/kg oral route, plasma): 227 min; half-life [4, 11]: 156 min; Cmax Brain ([4]; 200 mg/kg oral route, brain): 7751.80 ng/g
